The molecules below were run against human TGFβR1 (Homo sapiens (Human), UniProt P36897) (assay: ADP-Glo kinase activity assay: TGFβR1 phosphorylates TGFβR1tide). Details: ATP 5 uM, TGFβR1 0.5 ng/ul, TGFβR1tide 0.1 ug/ul, 60 minutes at room temperature.
Type: biochemical
Procedure: The principle of the activity assay was that TGFβR1 phosphorylates the substrate TGFβR1tide, consuming ATP in the process. This experiment employed the ADP-Glo method to detect kinase activity and determine the IC50 value, which was used to evaluate the inhibitory ability of the test compounds against human TGFβR1. In the experiment, DSM was used as a negative control, and LY364947 was used as a positive control. The specific experimental steps were as follows. Compounds were diluted 4-fold in DMSO in a dilution plate, with the final starting concentration of the compounds being 10 μM, across 10 concentration gradient points. The compounds were then further diluted 50-fold into the kinase reaction buffer and incubated on a shaker for 20 minutes. Kinase was formulated with an enzyme reaction buffer. 2 μl kinase was added to each well of the reaction plate. 1 μl of the compound diluted in buffer was added to each well, and then the plate was sealed with a sealing membrane and centrifuged at 1000 g for 30 seconds, leaving it at room temperature for 10 minutes. Solutions of TGFβR1tide and ATP were prepared with the kinase reaction buffer, and 2 μL of the TGFβR1tide/ATP solution was added to the reaction plate. The plate was sealed with a sealing film and centrifuged at 1000 g for 30 seconds. It was allowed to react at room temperature for 60 minutes. Subsequently, 4 μL of ADP-Glo was transferred to a 384-well reaction plate and centrifuged at 1000 rpm/min for 1 minute, followed by incubation at 25° C. for 40 minutes. Then, 8 μL of Detection solution was transferred to the 384-well reaction plate and centrifuged at 1000 rpm/min for 1 minute, after which it was incubated at 25° C. for 40 minutes. The RLU (Relative Luminescence Unit) signal was read using a BMG microplate reader, which was used to characterize the degree of kinase activity.
3.1 The inhibition rate was calculated as follows: inhibition rate of compound (% inh)=100%−(compound−positive control)/(negative control−positive control)*100%.
The IC50 (half inhibition concentration) of a compound was obtained using the following non-linear fitting equation, wherein data analysis was performed using Graphpad 7.0 software.
• 3.3.1 After an experimenter completed the report writing, another experimenter conducted a second inspection to ensure the accuracy of data analysis. • 3.3.2 Data were exported from BMG and analyzed manually. • 3.3.2.1 The ratios were converted to inhibition rates and IC50 was calculated by Prism GraphPad 7.0 from the inhibition rates. • 3.3.2.2 IC50 was calculated again by the ratios to verify accuracy of the results.

Sequence of human TGFβR1 (P36897 34-503): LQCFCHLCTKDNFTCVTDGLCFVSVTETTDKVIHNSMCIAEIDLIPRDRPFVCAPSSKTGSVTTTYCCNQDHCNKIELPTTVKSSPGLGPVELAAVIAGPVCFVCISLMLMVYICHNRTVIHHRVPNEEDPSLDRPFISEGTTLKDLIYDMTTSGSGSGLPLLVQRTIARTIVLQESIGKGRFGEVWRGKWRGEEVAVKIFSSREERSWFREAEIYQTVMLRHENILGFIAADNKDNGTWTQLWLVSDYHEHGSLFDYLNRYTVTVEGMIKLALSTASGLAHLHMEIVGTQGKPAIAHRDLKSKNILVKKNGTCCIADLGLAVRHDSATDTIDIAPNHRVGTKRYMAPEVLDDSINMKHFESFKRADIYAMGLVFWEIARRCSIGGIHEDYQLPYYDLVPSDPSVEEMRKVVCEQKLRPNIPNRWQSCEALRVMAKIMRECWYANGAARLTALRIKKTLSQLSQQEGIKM

IC50	SMILES
15 nM	Cc1cccc(-c2nc3n(c2-c2ccc4[nH]ncc4c2)CC2CC32)n1 (stereo not drawn) [Compound 5, 3-(1H-Indazol-5-yl)-2-(6-methylpyridin-2-yl)-5,5a,6,6a-tetrahydrocyclopropane[3,4]pyrrolo[1,2-a]imidazole]
22 nM	Cc1cccc(-c2nc3n(c2-c2ccnc(-c4nc5c([nH]4)CNC5)c2)CC2CC32)n1 (stereo not drawn) [Compound 8, 2-(6-Methylpyridin-2-yl)-3-(2-(1,4,5,6-tetrahydropyrrolo[3,4-d]imidazol-2-yl)pyridin-4-yl)-5,5a,6,6a-tetrahydrocyclopropane[3,4]pyrrolo[1,2-a]imidazole]
4.9 nM	Cc1cccc(-c2nc3n(c2-c2ccc4ncn(C)c4c2)CC2CC32)n1 (stereo not drawn) [Compound 16, 3-(1-Methyl-1H-benzo[d]imidazol-6-yl)-2-(6-methylpyridin-2-yl)-5,5a,6,6a-tetrahydrocyclopropane[3,4]pyrrolo[1,2-a]imidazole]
5.6 nM	Cc1cccc(-c2nc3n(c2-c2ccc4ncnn4c2)CC2CC32)n1 (stereo not drawn) [Compound 18, 3-([1,2,4]Triazolyl[1,5-a]pyridin-6-yl)-2-(6-methylpyridin-2-yl)-5,5a,6,6a-tetrahydrocyclopropane[3,4]pyrrolo[1,2-a]imidazole]
50 nM	Cc1cccc(-c2nc3n(c2-c2ccc4nccn4c2)CC2CC32)n1 (stereo not drawn) [Compound 19, 3-(Imidazolo[1,2-a]pyridin-6-yl)-2-(6-methylpyrridin-2-yl)-5,5a,6,6a-tetrahydrocyclopropane[3,4]pyrrolo[1,2-a]imidazole]
38 nM	Cc1cccc(-c2nc3n(c2-c2ccc4ncoc4c2)CC2CC32)n1 (stereo not drawn) [Compound 20, 6-(2-(6-Methylpyridin-2-yl)-5,5a,6,6a-tetrahydrocyclopropane[3,4]pyrrolo[1,2-a]imidazol-3-yl)benzo[d]oxazole]
6 nM	Cc1cccc(-c2nc3n(c2-c2ccc4ncsc4c2)CC2CC32)n1 (stereo not drawn) [Compound 21, 6-(2-(6-Methylpyridin-2-yl)-5,5a,6,6a-tetrahydrocyclopropane[3,4]pyrrolo[1,2-a]imidazol-3-yl)benzo[d]thiazole]
12 nM	Cc1cccc(-c2nc3n(c2-c2ccc4nc[nH]c4c2)CC2CC32)n1 (stereo not drawn) [Compound 35, 3-(1H-Benzo[d]imidazol-6-yl)-2-(6-methylpyridin-2-yl)-5,5a,6,6a-tetrahydrocyclopropyl[3,4]pyrrolo[1,2-a]imidazole]
13 nM	Cc1cccc(-c2nc3n(c2-c2ccn4nccc4c2)CC2CC32)n1 (stereo not drawn) [Compound 36, 2-(6-Methylpyridin-2-yl)-3-(pyrazolo[1,5-a]pyridin-5-yl)-5,5a,6,6a-tetrahydrocyclopropyl[3,4]pyrrolo[1,2-a]imidazole]
